Patent US12606552B2, “Bifunctional compound, preparation method therefor, and use thereof” (SUZHOU KINTOR PHARMACEUTICALS, INC., priority 2020, dated 2026)

What was measured:
[1] = Pharmacokinetic studies of compounds in mice; assay type: in vivo; settings: male mice, intragastric administration 10 mg/kg, plasma
Protocol: Activity Assay Example 3: Pharmacokinetic Studies of Compounds in Mice
In this test, 3 male mice were selected and divided into 1 group, 3 mice/group. All animals were fasted overnight before administration.
The intragastric administration dose was 10 mg/kg, and the administration volume was 10 mL/kg.
2.2 Preparation of Drug Solution
According to the animal body weight combined with the administration dose, the amount of the required drug solution was calculated. An appropriate amount of the test substance was weighed, added with 5% of the final volume of ethanol for dissolution, then added with 5% of the final volume of SolutolHS15, and finally added with PBS to the final volume, and mixed by vortex and fully dissolved to obtain a solution for intragastric administration (1 mg/mL). All solutions were prepared for immediate use.
2.3 Method of Administration
Before administration, the drug solution was placed on a magnetic stirrer in the animal laboratory and stirred for at least 10 min. During the administration process, vortex was continued to ensure uniformity of the drug solution. The theoretical volume of gavage administration was 10 mL/kg, which was administered with a syringe equipped with a gavage needle.
Before administration, the animals were weighed and the body weight of the animals involved in the experiment was recorded, and the administration volume of each animal was calculated according to the body weight. After administration, animals were promptly transferred back to the experimental cages to collect samples.
2.4 Observation of Animal Status
After administration, whether animals had abnormal reactions was observed immediately. If there were no abnormal reactions, animals were observed twice a day during the experiment. If abnormal reactions were found, they should be recorded in time, and the number of observations should be increased until the animals returned to normal or to the end of the experiment.
2.5 Sample Collection and Preservation
All experimental animals were fasted overnight before administration, and blood was collected at corresponding time points into blood collection tubes containing heparin sodium anticoagulant. After the whole blood was collected, the blood collection tube was gently shaken and placed on ice immediately, and then centrifuged (4° C., 4000 rpm, 10 min) to collect supernatant plasma samples, which were stored in a refrigerator at −80° C. before analysis.
2.6 Plasma Sample Processing and Analysis
The collected plasma samples were handed over to the Pharmacokinetic department for sample extraction, and the test substances in the plasma were extracted by protein precipitation method using organic reagents containing internal standards (acetonitrile:plasma=4:1, v/v). The extracted processed samples were submitted for quantitative concentration analysis by LC-MS/MS. According to the plasma concentration of each animal obtained by the analysis, software Kinetica (version 5.0) was used to calculate the main pharmacokinetic parameter eAUC30-120 according to the non-compartment model to evaluate the exposure amount; the test results are shown in Table 2: […]

[2] = target: T1, AR (Homo sapiens, UniProt P10275, T878A); experiment: Effects of compounds on AR expression in LNCaP cells (ELISA, DC50); assay type: cell-based; design: Measurement of the Effects of Drugs on the Expression of AR in Cells by ELISA Method; endogenous in cells; host or cells: LNCaP; settings: 24 hours of drug treatment, AR by ELISA
T1 sequence (P10275 1-920 T878A): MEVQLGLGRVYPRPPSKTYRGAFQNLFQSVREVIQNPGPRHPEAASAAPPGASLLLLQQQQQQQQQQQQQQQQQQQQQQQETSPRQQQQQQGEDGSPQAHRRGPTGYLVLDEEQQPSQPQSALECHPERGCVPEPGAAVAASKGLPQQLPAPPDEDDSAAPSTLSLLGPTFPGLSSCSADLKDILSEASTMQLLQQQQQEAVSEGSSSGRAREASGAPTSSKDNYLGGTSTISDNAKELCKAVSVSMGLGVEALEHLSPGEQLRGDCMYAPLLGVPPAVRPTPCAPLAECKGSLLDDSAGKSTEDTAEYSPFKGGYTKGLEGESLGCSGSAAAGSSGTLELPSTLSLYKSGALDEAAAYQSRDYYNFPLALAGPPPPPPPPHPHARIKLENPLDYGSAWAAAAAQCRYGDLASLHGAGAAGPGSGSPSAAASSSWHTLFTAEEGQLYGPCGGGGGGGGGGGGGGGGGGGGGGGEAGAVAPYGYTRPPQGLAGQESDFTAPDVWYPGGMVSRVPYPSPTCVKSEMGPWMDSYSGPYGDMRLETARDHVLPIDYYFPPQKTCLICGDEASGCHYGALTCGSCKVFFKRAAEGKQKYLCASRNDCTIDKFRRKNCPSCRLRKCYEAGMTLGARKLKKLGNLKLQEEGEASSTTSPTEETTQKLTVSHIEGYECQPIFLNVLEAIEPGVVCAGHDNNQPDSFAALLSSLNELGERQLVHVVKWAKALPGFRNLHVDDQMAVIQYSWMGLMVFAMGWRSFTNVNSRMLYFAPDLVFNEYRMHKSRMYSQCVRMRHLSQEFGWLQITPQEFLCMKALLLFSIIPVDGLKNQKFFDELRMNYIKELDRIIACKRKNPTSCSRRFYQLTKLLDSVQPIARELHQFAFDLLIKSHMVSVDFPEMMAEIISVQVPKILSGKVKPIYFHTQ
How it was run: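 LNCaP cells at about 15,000/well were treated for 24 h with compound at 0.0001–2 μmol/L final. AR in cell lysates was measured by ELISA (OD450). Inhibition was relative to DMSO control after blank subtraction, and DC50 was calculated from it.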

| Structure (SMILES) | eAUC0.5-2 h [1] [ng·h/mL] | DC50 [2] [nM] |
| --- | --- | --- |
| Cc1ncsc1-c1ccc([C@H](C)NC(=O)[C@@H]2C[C@@H](O)CN2C(=O)[C@@H](NC(=O)COCCCCCOc2ccc(-c3ncc(N4C(=S)N(c5ccc(C#N)c(C(F)(F)F)c5F)C(=O)C4(C)C)cc3F)cc2F)C(C)(C)C)cc1 [Compound A112] | 383 ± 165 | 153 |
| Cc1ncsc1-c1ccc(CNC(=O)[C@@H]2C[C@@H](O)CN2C(=O)[C@@H](NC(=O)COCCCCOc2ccc(-c3ccc(N4C(=S)N(c5ccc(C#N)c(C(F)(F)F)c5F)C(=O)C4(C)C)cn3)cc2C#N)C(C)(C)C)cc1 [Compound A57] | 182 ± 84 | 31.8 |
| Cc1ncsc1-c1ccc(CNC(=O)[C@@H]2C[C@@H](O)CN2C(=O)[C@@H](N(C)C(=O)COCCCCOc2ccc(-c3ccc(N4C(=S)N(c5ccc(C#N)c(C(F)(F)F)c5F)C(=O)C4(C)C)cn3)cc2)C(C)(C)C)cc1 [Compound A66] | 525 ± 106 | 213 |
| Cc1ncsc1-c1ccc([C@H](C)NC(=O)[C@@H]2C[C@@H](O)CN2C(=O)[C@@H](NC(=O)COCCCCOc2c(F)cc(-c3ncc(N4C(=S)N(c5ccc(C#N)c(C(F)(F)F)c5F)C(=O)C4(C)C)cc3C(F)(F)F)cc2F)C(C)(C)C)cc1 [Compound A115] | 1136 ± 164 | 214 |
| Cc1ncsc1-c1ccc(CNC(=O)[C@@H]2C[C@@H](O)CN2C(=O)[C@@H](NC(=O)COCCCCOc2ccc(-c3ncc(N4C(=S)N(c5ccc(C#N)c(C(F)(F)F)c5F)C(=O)C4(C)C)cc3C(F)(F)F)c(F)c2)C(C)(C)C)cc1 [Compound A95] | 1234 ± 430 | 106 |
| Cc1ncsc1-c1ccc([C@H](C)NC(=O)[C@@H]2C[C@@H](O)CN2C(=O)[C@@H](NC(=O)COCCCCOc2ccc(-c3ncc(N4C(=S)N(c5ccc(C#N)c(C(F)(F)F)c5F)C(=O)C4(C)C)cc3F)c(C(F)(F)F)c2)C(C)(C)C)cc1 [Compound A109] | 557 ± 108 | 71.4 |
| Cc1ncsc1-c1ccc(CNC(=O)[C@@H]2C[C@@H](O)CN2C(=O)[C@@H](NC(=O)COCCOc2ccc(-c3ccc(N4C(=S)N(c5ccc(C#N)c(C(F)(F)F)c5F)C(=O)C4(C)C)cn3)cc2)C(C)(C)C)cc1 [Compound A71] | 287 ± 135 | 62.1 |
| Cc1ncsc1-c1ccc([C@H](CC(=O)N2CCC(Oc3ccc(-c4ncc(N5C(=S)N(c6ccc(C#N)c(C(F)(F)F)c6F)C(=O)C5(C)C)cc4F)cc3F)CC2)NC(=O)[C@@H]2C[C@@H](O)CN2C(=O)[C@@H](NC(=O)C2(F)CC2)C(C)(C)C)cc1 [Compound A136] | 697 ± 127 | 68 |
| Cc1ncsc1-c1ccc(CNC(=O)[C@@H]2C[C@@H](O)CN2C(=O)[C@@H](NC(=O)COCCCCOc2ccc(-c3ncc(N4C(=S)N(c5ccc(C#N)c(C(F)(F)F)c5F)C(=O)C4(C)C)cc3C(F)(F)F)cc2F)C(C)(C)C)cc1 [Compound A74] | 746 ± 158 | 77.8 |
| Cc1ncsc1-c1ccc([C@H](CC(=O)N2CCC(C#Cc3ccc(N4C(=S)N(c5ccc(C#N)c(C(F)(F)F)c5F)C(=O)C4(C)C)cc3)CC2)NC(=O)[C@@H]2C[C@@H](O)CN2C(=O)[C@@H](NC(=O)C2(F)CC2)C(C)(C)C)cc1 [Compound A133] | 2253 ± 851 | 33.3 |
| Cc1ncsc1-c1ccc(CNC(=O)[C@@H]2C[C@@H](O)CN2C(=O)[C@@H](NC(=O)COCCCCOc2ccc(-c3ncc(N4C(=S)N(c5ccc(C#N)c(C(F)(F)F)c5F)C(=O)C4(C)C)cc3F)cc2C#N)C(C)(C)C)cc1 [Compound A78] | 187 ± 66 | 57.4 |
| CC1(C)C(=O)N(c2ccc(C#N)c(C(F)(F)F)c2F)C(=S)N1c1ccc(-c2ccc(OCCNC(=O)COc3cccc4c3C(=O)N(C3CCC(=O)NC3=O)C4=O)c(C#N)c2)nc1 (stereo not drawn) [Compound A36] | 29 ± 12 | 93 |
